From patent US9273058B2 (BRISTOL-MYERS SQUIBB COMPANY, priority 2013, dated 2016)
pIC50: −log10 of the molar value. Like-named read-outs stand apart in the source and are kept apart here.

Columns and labels:
[1] = target: CK1ε (Homo sapiens, UniProt P49674); assay: CK1ε kinase assay (Caliper LabChip electrophoretic separation of fluoresceinated peptide substrate and product); assay type: biochemical; settings: 200 pM CK1ε, 50 μM ATP, 1.5 μM peptide, 22 hours at room temperature
In short: (§1)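 Compounds, taken from 10 mM DMSO stocks, are titrated at eleven concentrations. Kinase reactions proceed for 22 hours at room temperature and are quenched with EDTA. Substrate and product are resolved electrophoretically, and IC50 values are fitted by non-linear regression.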

[2] = target: CK1δ (Homo sapiens, UniProt P48730); assay: CK1δ kinase assay (Caliper LabChip electrophoretic separation of fluoresceinated peptide substrate and product); assay type: biochemical; settings: 200 pM CK1δ, 50 μM ATP, 1.5 μM peptide, 22 hours at room temperature
Chain of CK1δ (P48730 whole entry): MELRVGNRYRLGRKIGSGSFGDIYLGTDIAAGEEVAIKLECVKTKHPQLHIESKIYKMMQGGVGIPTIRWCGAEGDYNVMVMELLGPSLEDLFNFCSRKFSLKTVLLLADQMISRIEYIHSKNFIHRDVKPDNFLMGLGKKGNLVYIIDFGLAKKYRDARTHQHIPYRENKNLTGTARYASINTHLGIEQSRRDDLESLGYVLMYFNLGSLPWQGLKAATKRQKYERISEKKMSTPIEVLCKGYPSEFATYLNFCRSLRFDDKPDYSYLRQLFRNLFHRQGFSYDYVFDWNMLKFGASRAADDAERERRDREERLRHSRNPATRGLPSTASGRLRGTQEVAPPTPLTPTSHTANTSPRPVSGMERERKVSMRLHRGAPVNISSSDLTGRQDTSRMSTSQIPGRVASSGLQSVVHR
In short: as §1

Chain of CK1ε (P49674 whole entry): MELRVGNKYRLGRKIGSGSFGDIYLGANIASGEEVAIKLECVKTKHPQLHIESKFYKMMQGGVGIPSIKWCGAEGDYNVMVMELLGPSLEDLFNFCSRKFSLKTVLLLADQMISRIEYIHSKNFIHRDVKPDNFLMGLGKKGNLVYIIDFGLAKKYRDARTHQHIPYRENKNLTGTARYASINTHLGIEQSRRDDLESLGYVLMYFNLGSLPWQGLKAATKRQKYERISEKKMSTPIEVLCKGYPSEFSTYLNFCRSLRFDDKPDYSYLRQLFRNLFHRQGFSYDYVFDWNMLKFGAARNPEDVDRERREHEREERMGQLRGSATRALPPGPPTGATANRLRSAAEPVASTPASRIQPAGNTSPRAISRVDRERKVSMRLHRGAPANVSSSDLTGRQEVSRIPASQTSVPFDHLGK

Row | SMILES | pIC50 ([1]; read-out: CK1ε IC50 range) | pIC50 ([2]; read-out: CK1δ IC50 range) | pIC50 ([2]; read-out: CK1δ) | pIC50 ([1]; read-out: CK1ε)
1 | CC(C)(C)NC(=O)N1CCn2nc(-c3ccccc3C(N)=O)c(C(N)=O)c2C1 [Compound 131, N^5-(tert-Butyl)-2-(2-carbamoylphenyl)-6,7-dihydropyrazolo[1,5-a] pyrazine-3,5(4H)-dicarboxamide] | 5.70 to 7.00 | 5.70 to 7.00 | – | –
2 | N#Cc1ccc([C@H]2C[C@@H](NC(=O)N3CCn4nc(-c5cccc(Cl)c5)c(C(N)=O)c4C3)C2)cc1 [Compound 284, 2-(3-Chlorophenyl)-N^5-((1s,3s)-3-(4-cyanophenyl)cyclobutyl)-6,7-dihydropyrazolo[1,5-a] pyrazine-3,5(4H)-dicarboxamide] | 8.00 to 11.00 | 8.00 to 11.00 | – | –
3 | CC(C)(NC(=O)N1CCn2nc(-c3ccc(F)c(Cl)c3)c(C(N)=O)c2C1)C(=O)N1CCCC1 [Compound 215, 2-(3-Chloro-4-fluorophenyl)-N^5-(2-methyl-1-oxo-1-(pyrrolidin-1-yl)propan-2-yl)-6,7-dihydropyrazolo [1,5-a]pyrazine-3,5(4H)-dicarboxamide] | 7.00 to 8.00 | 8.00 to 11.00 | – | –
4 | CC(C)(C)NC(=O)N1Cc2c(C(N)=O)c(-c3ccc(F)c(Cl)c3)nn2CC1C(F)(F)F (single isomer, unassigned) [Compound 346, N^5-(tert-Butyl)-2-(3-chloro-4-fluorophenyl)-6-(trifluoromethyl)-6,7-dihydropyrazolo[1,5-a]pyrazine-3,5(4H)-dicarboxamide] | 5.70 to 7.00 | 5.70 to 7.00 | – | –
5 | NC(=O)c1c(-c2ccc(Cl)c(Cl)c2)nn2c1CN(C(=O)NC1(c3cccnc3)CC(F)(F)C1)CC2 [Compound 313, 2-(3,4-Dichlorophenyl)-N^5-(3,3-difluoro-1-(pyridin-3-yl)cyclobutyl)-6,7-dihydropyrazolo[1,5-a]pyrazine-3,5(4H)-dicarboxamide] | 8.00 to 11.00 | 8.00 to 11.00 | – | –
6 | CC(C)(C)NC(=O)N1CCn2nc(-c3cncnc3)c(C(N)=O)c2C1 [Compound 142, N^5-(tert-Butyl)-2-(pyrimidin-5-yl)-6,7-dihydropyrazolo [1,5-a]pyrazine-3,5(4H)-dicarboxamide] | 5.70 to 7.00 | 5.70 to 7.00 | 6.05 | –
7 | CC(C)(C)NC(=O)N1Cc2c(C(N)=O)c(-c3ccc(F)c(Cl)c3)nn2C(C(C)(C)C)C1 (stereo not drawn) [Compound A118, N^5-7-Di-tert-butyl-2-(3-chloro-4-fluorophenyl)-6,7-dihydropyrazolo[1,5-a]pyrazine-3,5(4H)-dicarboxamide] | 8.00 to 11.00 | 8.00 to 11.00 | – | –
8 | NC(=O)c1c(-c2ccc(Cl)c(Cl)c2)nn2c1CN(C(=O)NCC1CC(F)(F)C1)CC2 [Compound 205, 2-(3,4-Dichlorophenyl)-N^5-((3,3-difluorocyclobutyl)methyl)-6,7-dihydropyrazolo[1,5-a] pyrazine-3,5(4H)-dicarboxamide] | 8.00 to 11.00 | 8.00 to 11.00 | – | –
9 | CC(C)(C)NC(=O)N1Cc2c(C(N)=O)c(-c3ccc(F)c(Cl)c3)nn2C(C(C)(C)C)C1 (single isomer, unassigned) [Compound A117, N^5-7-Di-tert-butyl-2-(3-chloro-4-fluorophenyl)-6,7-dihydropyrazolo[1,5-a]pyrazine-3,5(4H)-dicarboxamide] | 7.00 to 8.00 | 5.70 to 7.00 | – | –
10 | NC(=O)c1c(-c2cccc(F)c2)nn2c1CN(C(=O)Nc1cc(F)cc(F)c1F)CC2 [Compound 27, 2-(3-Fluorophenyl)-N^5-(2,3,5-trifluorophenyl)-6,7-dihydropyrazolo[1,5-a]pyrazine-3,5(4H)-dicarboxamide] | 7.00 to 8.00 | 7.00 to 8.00 | – | –
11 | N#Cc1ccc(C2(NC(=O)N3CCn4nc(-c5ccc(F)c(Cl)c5)c(C(N)=O)c4C3)CC(F)(F)C2)cc1 [Compound 314, 2-(3-Chloro-4-fluorophenyl)-N^5-(1-(4-cyanophenyl)-3,3-difluorocyclobutyl)-6,7-dihydropyrazolo[1,5-a]pyrazine-3,5(4H)-dicarboxamide] | 8.00 to 11.00 | 8.00 to 11.00 | – | –
12 | NC(=O)c1c(-c2ccc(F)c(Cl)c2)nn2c1CN(C(=O)NC1CC(F)(F)C1)CC2C(F)(F)F (single isomer, unassigned) [Compound A125, 2-(3-Chloro-4-fluorophenyl)-N^5-(3,3-difluorocyclobutyl)-7-(trifluoromethyl)-6,7-dihydropyrazolo[1,5-a]pyrazine-3,5(4H)-dicarboxamide] | 7.00 to 8.00 | 7.00 to 8.00 | – | –
13 | NC(=O)c1c(-c2ccc(Cl)c(Cl)c2)nn2c1CN(C(=O)NC1(c3ccc(F)cc3)CC(F)(F)C1)CC2 [Compound 310, 2-(3,4-Dichlorophenyl)-N^5-(3,3-difluoro-1-(4-fluorophenyl)cyclobutyl)-6,7-dihydropyrazolo[1,5-a] pyrazine-3,5(4H)-dicarboxamide] | 8.00 to 11.00 | 8.00 to 11.00 | – | –

The next lines start with the values.

Row | pIC50 ([1]; read-out: CK1ε IC50 range) | pIC50 ([2]; read-out: CK1δ IC50 range) | pIC50 ([2]; read-out: CK1δ) | pIC50 ([1]; read-out: CK1ε) | SMILES
14 | 8.00 to 11.00 | 8.00 to 11.00 | – | – | NC(=O)c1c(-c2cccc(Cl)c2)nn2c1CN(C(=O)NC13CCC(c4ccccc4)(CC1)CC3)CC2 [Compound A83, 2-(3-Chlorophenyl)-N^5-(4-phenylbicyclo[2.2.2]octan-1-yl)-6,7-dihydropyrazolo[1,5-a]pyrazine-3,5(4H)-dicarboxamide]
15 | 7.00 to 8.00 | 7.00 to 8.00 | – | – | CC(C)NC(=O)N1CCn2nc(-c3cccc(F)c3)c(C(N)=O)c2C1 [Compound 5, 2-(3-Fluorophenyl)-N^5-isopropyl-6,7-dihydropyrazolo[1,5-a]pyrazine-3,5(4H)-dicarboxamide]
16 | 8.00 to 11.00 | 8.00 to 11.00 | – | – | NC(=O)c1c(-c2cccc(Cl)c2)nn2c1CN(C(=O)NC1(C(F)(F)F)CC1)CC2 [Compound A40, 2-(3-Chlorophenyl)-N^5-(1-(trifluoromethyl)cyclopropyl)-6,7-dihydropyrazolo[1,5-a]pyrazine-3,5(4H)-dicarboxamide]
17 | 8.00 to 11.00 | 8.00 to 11.00 | – | – | NC(=O)c1c(-c2ccc(F)c(Cl)c2)nn2c1CN(C(=O)NC1CC3(C1)CC3(F)F)CC2 (single isomer, unassigned) [Compound 321, 2-(3-Chloro-4-fluorophenyl)-N^5-(1,1-difluorospiro[2.3]hexan-5-yl)-6,7-dihydropyrazolo[1,5-a]pyrazine-3,5(4H)-dicarboxamide]
18 | 8.00 to 11.00 | 8.00 to 11.00 | – | – | NC(=O)c1c(-c2ccc(Cl)c(Cl)c2)nn2c1CN(C(=O)NC1(COC(F)F)CCC1)CC2 [Compound 224, 2-(3,4-Dichlorophenyl)-N^5-(1-((difluoromethoxy)methyl)cyclobutyl)-6,7-dihydropyrazolo[1,5-a] pyrazine-3,5(4H)-dicarboxamide]
19 | 5.70 to 7.00 | 5.70 to 7.00 | – | – | CC(C)(C)NC(=O)N1CCn2nc(-c3cccc(C(=O)O)c3)c(C(N)=O)c2C1 [Compound 122, 3-(5-(tert-Butylcarbamoyl)-3-carbamoyl-4,5,6,7-tetrahydropyrazolo[1,5-a]pyrazin-2-yl)benzoic acid]
20 | 8.00 to 11.00 | 8.00 to 11.00 | 9.30 | 9.15 | CC1(NC(=O)N2CCn3nc(-c4ccc(F)c(Cl)c4)c(C(N)=O)c3C2)CC(C(F)F)C1 (single isomer, unassigned) [Compound 258, 2-(3-Chloro-4-fluorophenyl)-N^5-(3-(difluoromethyl)-1-methylcyclobutyl)-6,7-dihydropyrazolo[1,5-a]pyrazine-3,5(4H)-dicarboxamide]
21 | 8.00 to 11.00 | 8.00 to 11.00 | – | – | NC(=O)c1c(-c2ccc(Cl)c(Cl)c2)nn2c1CN(C(=O)NC1(C(F)F)CCC1)CC2 [Compound 237, 2-(3,4-Dichlorophenyl)-N^5-(1-(difluoromethyl)cyclobutyl)-6,7-dihydropyrazolo[1,5-a] pyrazine-3,5(4H)-dicarboxamide]
